Results as given in patent US20220387620A1, “NANOSTRUCTURED DRUG DELIVERY SYSTEM AS A MULTIFUNCTIONAL PLATFORM FOR THERAPY” (priority 2019, published 2022).

Key:
U-87 MG cells = experiment: Resazurin cell viability / cytotoxicity assay; format: cell-based, human; conditions: free drug
Method: Regarding cell viability, U-87 MG cells were cultured in DMEM/F-12 medium, supplemented with 10% (v/v) FBS, 1% (v/v) penicillin-streptomycin solution and sodium bicarbonate. Cells were maintained at 37° C. in a humidified atmosphere containing CO2 (5%). The resazurin assay was used to determine the cytotoxicity of NLCs. Briefly, 2000 cells per well were seeded in a 96 well plate and incubated for 24 h or 72 h after the medium was replaced with increasing concentrations of free drugs or NLCs. Subsequently, the medium was removed and the cell viability determined. For this purpose, 100 μL of 10% (w/v) resazurin solution in DMEM/F 12 was added to the cells and incubated for approximately 2 h, at 37° C. The enzymatic reduction of resazurin to resorufin was analyzed by UV/Vis spectrophotometry at 570 nm and 600 nm. Cell viability was assessed indirectly according to equation 1.

human blood = experiment: In vitro hemolytic activity (NCL ITA-1 protocol); format: cell-based; conditions: positive control, 3 h at 37° C.
Source text: The haemolytic behaviour of NLCs formulations was explored following the Nanotechnology Characterization Lab (NCL) protocol for analysis of Haemolytic Properties of Nanoparticles (NCL ITA-1 Version 1.2), with slight modifications. Briefly, fresh human blood was drawn from healthy participants in the Laboratory of Clinical Analysis of the Faculty of Pharmacy of the University of Coimbra, after a written informed consent was obtained from all individuals. The venous blood, collected in heparinised vacutainer tubes, was properly diluted in PBS to final a concentration of 10 mg/mL of total blood haemoglobin, and incubated with the NLCs at eight different concentrations, regarding ATO content for 3 h at 37° C. Aqueous and acetate buffered polysorbate 80 solutions were also tested in 15 and 100 μg/mL. PBS and Triton™ X-100 were used as negative and positive controls, respectively, with additional no-blood controls being used due to possible interference of CUR at 540 nm. Following incubation, cell-free supernatants were obtained and any plasma-free haemoglobin and metabolites were converted into cyanmethaemoglobin (CMH), using Drabkin's reagent. The detection of CMH was conducted at 540 nm and the percentage of haemolysis (%) was calculated taking into account the equation 2.

What does the source list for `COc1cc(/C=C/C(=O)CC(=O)/C=C/c2ccc(O)c(OC)c2)ccc1O` [CUR, curcumin]?
IC50 (U-87 MG cells; Homo sapiens, U-87 MG, 24 h of incubation): 86 ± 35 µM; IC50 (U-87 MG cells; Homo sapiens, U-87 MG, 72 h of incubation): 77 ± 1 µM

How did the IC50 (U-87 MG cells; 24 h of incubation) turn out when `CC(C)c1c(C(=O)Nc2ccccc2)c(-c2ccccc2)c(-c2ccc(F)cc2)n1CC[C@@H](O)C[C@@H](O)CC(=O)O` [ATO, atorvastatin calcium] was run?
Its IC50 is 134 ± 27 µM.

What about the IC50 (U-87 MG cells; 72 h of incubation) of the same molecule?
Its IC50 is 25 ± 5 µM.

Which hemolysis (human blood) does the source give for Triton™ X-100 here?
The hemolysis was “complete hemolysis”.
